Experimental data published in US20260240200A1, “COMPOSITION COMPRISING AN N-GUANYLAMINO ACID FOR DRINKING WATER APPLICATION” (Evonik Operations GmbH, priority 2023, published 2026).

Experiments:
[1] = Determination of the dissolution time in 10 L tap water, neither stirred nor moved; format: physicochemical; settings: not stirred or moved
Method: The mixture was neither stirred nor moved. After 3 minutes there was no solid mixture at the bottom of the beaker.
A beaker with 10 L tap water was provided and 3 g (25.3 mmol) guanidinoacetic acid (GAA, powder, purchased from Gendone, China) was added. The powder sank to the bottom of the beaker. The mixture was not stirred or moved. After 4 days, no solid material was recognizable any more at the bottom of the beaker.

[2] = 15° C.; cited from earlier work

dissolution time (no solid material recognizable at the bottom of the beaker) [1]: ≤ 4 days
Compound: N=C(N)NCC(=O)O [guanidinoacetic acid]
solubility in water [2]: 1 g in 278 ml water
